One may read the GI50 as the concentration at which growth is held to half of that of the control. Broadly, the TGI is the concentration at which net growth stops. Low readings indicate greater sensitivity of the cells, high ones lower sensitivity of the cells.

Where “and” joins values, the source holds several entries; their conditions need not be identical. Equal entries are not always repeated.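 48-hour exposure; five concentrations; linearly interpolated endpoints. Abbreviation: GI50, concentration required for 50% inhibition of growth. TGI: total growth inhibition.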

Experiment in all cases: DTP human tumour cell line panel, 48 h
For experiment [1], the system named is RXF 393 renal.
Experiment [2] has as its system SF-268 CNS.
Experiment [3] concerns CCRF-CEM leukemia.
Experiment [4] has as its system UACC-257 melanoma.
The test system of experiment [5] is HT29 colon.
For experiment [6], the system named is ACHN renal.
Experiment [7] deals with RPMI-8226 leukemia.
For experiment [8], the system named is SK-MEL-5 melanoma.
Experiment [9] deals with OVCAR-8 ovarian.
In experiment [10] the test system is HOP-62 NSCLC.

For the compound `O=C1C=Cc2cc3ccccc3c3cccc1c23`, the GI50 in [1] was 2.71 µM; in [2] it was 4.55 µM; in [3], 4.35 µM; in [4] it was 4.29 µM; in experiment [5], 7.29 µM; in experiment [6] it was 2.06 µM. Moreover, the GI50 in experiment [7] was 2.62 µM; in [8], 2.73 µM; in experiment [9], 3.3 µM; in [10] it was 2.12 µM. Further, the total growth inhibition concentration (TGI) is 8.62 µM in experiment [1]; 27 µM in experiment [2]; 18.3 µM in [3]; 19.2 µM in experiment [4]; over 100 µM in [5]; 7.39 µM in [6]. Further, the total growth inhibition concentration (TGI) is 8.5 µM in experiment [7], 5.87 µM in experiment [8], 16.7 µM in experiment [9] and 29.5 µM in [10].
For the compound `Nc1ncnc2c1ncn2C1OC(CO)C(O)C1O` (stereo unspecified), the GI50 in experiment [1] was 22.5 µM; in experiment [2], 38.7 µM; in experiment [3], over 100 µM; in experiment [4] it was over 450 µM; in experiment [6] it was 30.4 µM; in [8] it was > 100 µM and > 450 µM and 46.2 µM. Also, the GI50 was 32.9 µM and 79.3 µM and 12.6 µM in experiment [9]; 11.7 µM in experiment [10]. The TGI in experiment [1] is > 100 µM and 290 µM and 64.1 µM; in experiment [2], over 450 µM; in experiment [3], over 284 µM; in [4] it was over 450 µM; in experiment [5], over 450 µM; in experiment [6], > 100 µM and 96.8 µM. The TGI in experiment [7] is > 100 µM and > 450 µM and 60.8 µM; in experiment [8], over 450 µM; in [9] it was over 401 µM; in experiment [10], > 100 µM and 184 µM and 47.9 µM.
For the compound `CN1CCN(c2nc(NCCNc3ccnc4cc(Cl)ccc34)c3ccccc3n2)CC1`, the GI50 in [1] is 1.46 µM; in [2], 2.72 µM; in experiment [3], 0.527 µM; in experiment [4], 1.71 µM; in experiment [5], 0.699 µM; in experiment [6], 2.85 µM. In addition, the GI50 in [7] was 1.71 µM; in [8], 1.72 µM; in experiment [9], 2.12 µM; in experiment [10], 2.73 µM. The TGI is 3.46 µM in [1]; 13.1 µM in experiment [2]; 4.84 µM in experiment [3]; 3.18 µM in experiment [4]; 4.18 µM in experiment [5]; 8.27 µM in experiment [6]. Further, the total growth inhibition concentration (TGI) was found to be 4.26 µM in experiment [7], 3.12 µM in experiment [8], 5.75 µM in experiment [9] and 14.2 µM in experiment [10].
Take `O=c1cc(N2CCOCC2)oc2c(-c3ccccc3)cccc12`: the TGI in [1] was 13.4 µM and 13.6 µM; in [2], 53 µM and 14.2 µM; in [3], over 100 µM; in experiment [4], 69.2 µM and 60.8 µM; in [5] it was 70.6 µM and 43.8 µM; in experiment [6] it was over 100 µM. Also, the TGI is > 100 µM and 18.3 µM in [7]; 22 µM in [8]; > 80.1 µM and 29.1 µM in [9]; over 100 µM in experiment [10]. The GI50 in experiment [2] is 3.59 µM; in experiment [3] it was 8.59 µM; in experiment [4], 9.06 µM; in experiment [5] it was 5.27 µM; in experiment [6], 4.25 µM; in experiment [7] it was 5.1 µM. Besides, the GI50 was 9.35 µM in experiment [8] and 5.41 µM in experiment [10].
Consider `COC(=O)c1ccc2c(c1)[n+](=O)c(C(C)=O)c(C(F)(F)F)n2[O-]`, for which the GI50 was 2.04 µM in experiment [1]; 1.76 µM in [2]; 4.62 µM in experiment [3]; 1.82 µM in experiment [4]; 1.73 µM in [5]; 1.76 µM in experiment [6]. Also, the GI50 in [7] is 2.23 µM; in [8], 1.69 µM; in [9], 2.87 µM; in experiment [10] it was 1.94 µM. Further, the TGI was 3.86 µM in experiment [1]; 3.24 µM in [2]; over 100 µM in [3]; 3.31 µM in experiment [4]; 3.25 µM in experiment [5]; 3.24 µM in experiment [6]. For the same compound, the TGI in experiment [7] came to 6.34 µM; in experiment [8] it was 3.06 µM; in [9] it was 8.28 µM; in experiment [10], 3.69 µM.
As for `Oc1ccc(Br)cc1CN1CCN(Cc2ccc(Cl)cc2)CC1`, the GI50 in experiment [1] is 17.3 µM; in experiment [2], 31.5 µM; in experiment [3] it was 24.3 µM; in experiment [4], 16.5 µM; in experiment [5], 23.2 µM; in experiment [6], 31.7 µM. In addition, the GI50 in experiment [7] is 14.4 µM; in [8] it was 13 µM; in experiment [9], 24.8 µM; in experiment [10] it was 36.5 µM. For the same compound, the TGI is 80 µM in experiment [1]; over 100 µM in experiment [2]; over 100 µM in experiment [3]; 59.4 µM in experiment [4]; 62.5 µM in experiment [5]; over 100 µM in experiment [6]. Also, the TGI in [7] is over 100 µM; in [8], 26.4 µM; in experiment [9], over 100 µM; in [10] it was over 100 µM.
For `CC(C)=CCNc1ncnc2c1ncn2C1OC(COP(=O)(O)O)C(O)C1O` (stereo unspecified), the GI50 in [1] was 2.38 µM; in [2], 8.77 µM; in experiment [3] it was 3.32 µM; in experiment [4], over 100 µM; in experiment [5], 3.74 µM; in experiment [6], 3.08 µM. Moreover, the GI50 in [7] was 42.8 µM; in experiment [8] it was over 73.7 µM; in experiment [9] it was 1.6 µM; in [10], 23.5 µM. Also, the TGI is 8.98 µM in experiment [1]; over 100 µM in experiment [2]; over 100 µM in [3]; over 100 µM in experiment [4]; 42.5 µM in [5]; over 100 µM in experiment [6]. Besides, the TGI in experiment [7] was over 100 µM; in experiment [8], over 100 µM; in experiment [9] it was 3.64 µM; in [10], over 100 µM.
For the compound `CC1=NN(C(=O)CC(=O)Nc2ccccc2)C(=O)C1N=Nc1ccc(S(N)(=O)=O)cc1` (stereo unspecified), the TGI in experiment [1], in [2], in [3], in [4], in [5] and in [6] was over 100 µM in each case. The TGI in experiment [7], in [8], in experiment [9] and in experiment [10] was over 100 µM throughout.

The values are drawn from PubChem BioAssay (NCI).
